The record followed here is EP1087941B9, “THIOLESTERS AND USES THEREOF” (THE UNITED STATES OF AMERICA, as represented by THE …, priority 1998, dated 1999).

For one assay, the system named is HIV-1 NL4-3. The assay is described as follows: Virucidal (viral inactivation) assay on MAGI-CCR-5 cells. Format: cell-based. The method, then:
The cell-based p24 attachment assay was performed as described in Rice (1995) Science 270:1194-1197. Viral inactivation assays were carried out as described in Rice (1995) Science 270:1194-1197, and Turpin (1997) supra, with minor modifications. Briefly, MAGI-CCR-5 cells were plated (4 x 10^4 cells per well) in flat bottomed 2-cm well plates for 24 h, after which the culture media was removed and compound-treated virus was added. The virus used was obtained by transient transfection of pNL4-3 into HeLa cells yielding the replication competent NL4-3 virus. Virus containing supernatants were treated for 2 h at 37°C after which residual compound was removed by centrifugation (18,000 x g, 1h, 4°C). Virus pellets were resuspended and placed on the MAGI-CCR-5 monolayers and cultured for 48 h. Monolayers were fixed and stained with X-gal solution and blue cells counted.
NCp7 cross-linking is associated with viral inactivation. Whether the ability to crosslink the nucleocapsid protein, as determined by Western blotting, correlated with the ability to inactivate the viruses was tested in a virucidal assay. Virus stocks of HIV-1 NL4-3 were incubated with various thiolester compounds. The virus was obtained by transient transfection of a replication-competent pNL4-3 plasmid into HeLa cells. Residual thiolester was removed by centrifugation. The virus pellet was resuspended in culture media and used to infect MAGI-CCR-5 cells. At 48 hours post-infection, the cells were washed and stained with X-Gal. Compounds 44 and 45 were virucidal with I50 (concentration resulting in 50% virus inactivation) values of 12.3 µM and 13.2 µM, respectively.

Another assay addresses T1, NCp7 (Human immunodeficiency virus type 1 group M subtype B, UniProt P03347).
T1 construct: within the nucleocapsid p7 (NCp7) protein portion of the polyprotein
The assay is described as follows: NCp7 binding to packaging-site oligonucleotide, electrophoretic mobility shift assay. Format: biochemical, HIV-1. Particulars: for concentration at which NCp7-oligonucleotide complex formation was inhibited: EMSA on nondenaturing polyacrylamide gels; for IC50: Table 9, read-out: Nucleic Acid Binding (I50 µM). The method, then: Zinc finger reactivity was measured using a Zn specific fluorochrome, TSQ, N-(6-methoxy-8-quinolyl) -p-toluenesulfonamide, assay or a Trp37 zinc finger fluorescence assay. Fluorescent measurements of the Trp37 residue in the C-terminal finger of recombinant HIV-1 NCp7 protein were performed as described by Rice (1995) Science 270:1194-1197; Rice (1997) Antimicrob. Agents Chemother. 41:419-426. Measurement of Zn ejection from both fingers was measured using the Zn-selective fluorchrome probe TSQ (Molecular Probes, Eugene OR) as described by Rice (1996) J. Med. Chem 39:3606-3616. Measurement of the ability of NCp7 to bind to a DNA oligomer, a 44 mer: GGCGACTGGTGAGTACGCCAAAAATTTTGACTAGCGGAGGCTAG (SEQ ID NO:1), analogous to the HIV-1 RNA packaging site was carried out as described by Huang (1998) J. Med. Chem. 41:1371-1381, see also, Rossio (1998) HIV Pathogenesis and Treatment: Keystone Symposium on Molecular and Cellular Biology, Abstract # 4082. Briefly, 50 nM NCp7 was treated with test compounds for 1 hour at RT in […] buffer containing 10% glycerol and 50 mM Tris-HCl (pH 7.5). Labeled oligomer (0.1 picomole, end labeled [^32P]) was added in an equal volume of buffer containing 10% glycerol, 50 mM Tris-HCl (pH 7.5), 400 mM KCl and 40 mM MgCl2. The reaction was continued for 15 min at room temperature, and a total of […] (or 1/4 of the total reaction volume) was separated on nondenaturing 4.5% polyacrylamide gels in 0.5X Tris-Borate electrophoresis buffer. NCp7-oligomer complexes were visualized by autoradiography.
Interaction of zinc finger inhibitors with NCp7 can result in loss of protein structure and their ability to specifically bind oligonucleotides representing the HIV-1ψ packaging site (Huang (1998) supra; Tummino (1997) Antimicrob. Agents Chemother. 41:394-400; South (1993) Protein Sci. 2:3-19; Dannull (1994) EMBO J. 13:1525-1533). The ability of NCp7 to specifically associate with these oligonucleotides after treatment of the protein with a thiolester of the invention was tested. For example, compounds 44, 45 or 47 were very effective at inhibiting Ncp7's ability to associate with target oligonucleotide, as determined using electrophoretic mobility shift assays (EMSA) on nondenaturing polyacrylamide gels. At 1 µM, compound 45 inhibited complex formation. Compounds 44 and 47 inhibited complex formation at 100 µM (see Table 9).

The subject of the next assay is HIV-1RF. The assay is described as follows: XTT cytoprotection assay (antiviral activity). Format: cell-based. In general terms: Tetrazolium assays rely on reduction of a dye to a coloured formazan, in cell work by metabolically active cells.
Where [1] appears, read: Human immunodeficiency virus 1, NL43, MAGI-CCR5, read-out: Virucidal Activity (I50 µM).
Where [2] appears, read: Human immunodeficiency virus 1, NL43, MAGI-CCR5, read-out: virucidal I50 (concentration resulting in 50% virus inactivation).
[3] abbreviates: Human immunodeficiency virus 1, Table 5, XTT cytoprotection assay, read-out: Antiviral Activity EC50.
Where [4] appears, read: Human immunodeficiency virus 1, Table 6, XTT cytoprotection assay, read-out: Antiviral Activity EC50%.

Each structure is given as a SMILES string. Where two headings read alike, the source gives them in different places.

For `CC(=O)NS(=O)(=O)c1ccc(NC(=O)c2ccccc2SC(=O)CCCCBr)cc1` [Compound 44, N-[2-(5-bromovaleroylthio)benzoyl]sulfacetamide], the IC50 with HIV-1 NL4-3 (setting [1]) was determined as 12.3 µM; with HIV-1 NL4-3 (setting [2]), 12.3 µM; at NCp7, 100 µM. Besides, at NCp7, the “concentration at which NCp7-oligonucleotide complex formation was inhibited” value was 100 µM. Besides, the EC50 came out at 3.8 µM with HIV-1RF (setting [3]) and 38 µM in the assay on HIV-1RF (setting [4]).
On to `CC(=O)NS(=O)(=O)c1ccc(NC(=O)c2ccccc2SC(=O)CCCC[n+]2ccccc2)cc1` [Compound 45, N-[2-(5-pyridinio-valeroylthio)benzoyl]sulfacetamide bromide], for which the IC50 came out at 13.2 µM with HIV-1 NL4-3 (setting [1]), 13.2 µM in the assay on HIV-1 NL4-3 (setting [2]) and 1 µM at NCp7. The “concentration at which NCp7-oligonucleotide complex formation was inhibited” value at NCp7 was determined as 1 µM. For the same compound, the EC50 in the assay with HIV-1RF (Human immunodeficiency virus 1, read-out: EC50 (concentration inhibiting 50% virus replication)) is less than 10 µM; with HIV-1RF (setting [3]), 6.2 µM; with HIV-1RF (setting [4]), 6.2 µM.
Consider `O=C(CCCC[n+]1ccccc1)Sc1ccccc1C(=O)Nc1ccc(S(=O)(=O)c2ccc([N+](=O)[O-])cc2)cc1` [Compound 47], for which the IC50 in the assay with HIV-1 NL4-3 (setting [1]) and in the assay with HIV-1 NL4-3 (setting [2]) was 2.1 µM in each case. In addition, at NCp7, the “concentration at which NCp7-oligonucleotide complex formation was inhibited” value turned out to be 100 µM. Further, the EC50 in the assay on HIV-1RF (Human immunodeficiency virus 1, read-out: Antiviral Activity EC50%) is 5.5 µM.
